Numbers after ± are expanded uncertainties. One block for each compound: values may come before it.
How the values were obtained:
[1] = mn = molality of the nth substance listed, in mol/kg; details: 101 kPa, Liquid
[2] = 298.15 K; 101 kPa; Liquid

Compound: C1COCCOCCOCCOCCOCCO1 [1,4,7,10,13,16-hexaoxacyclooctadecane] + ClC(Cl)(Cl)Cl
- mass density ([1]; 298.15 K, m1 = 0.0896): 1569.55 ± 2.1 kg/m3
- speed of sound ([1]; 298.15 K, m1 = 0.0896): 932.5 ± 1.7 m/s
- mass density ([1]; 298.15 K, m1 = 0.1666): 1557.54 ± 2.1 kg/m3
- speed of sound ([1]; 298.15 K, m1 = 0.1666): 941.9 ± 1.7 m/s
- mass density ([1]; 298.15 K, m1 = 0.3643): 1529.41 ± 2 kg/m3
- speed of sound ([1]; 298.15 K, m1 = 0.3643): 965.4 ± 1.8 m/s
- mass density ([1]; 298.15 K, m1 = 0.5719): 1503.47 ± 1.9 kg/m3
- speed of sound ([1]; 298.15 K, m1 = 0.5719): 989.2 ± 1.8 m/s
- mass density ([1]; 298.15 K, m1 = 0.8185): 1476.37 ± 1.8 kg/m3
- speed of sound ([1]; 298.15 K, m1 = 0.8185): 1015.6 ± 1.8 m/s
- mass density ([1]; 298.15 K, m1 = 1.013): 1457.02 ± 1.8 kg/m3
- speed of sound ([1]; 298.15 K, m1 = 1.013): 1034.2 ± 1.8 m/s

Compound: ClC(Cl)(Cl)Cl [tetrachloromethane]
- mass density [2]: 1584.35 ± 2.2 kg/m3
- speed of sound [2]: 921.5 ± 1.7 m/s

Compound: ClC(Cl)(Cl)Cl [tetrachloromethane] + C1COCCOCCOCCOCCOCCO1
- mass density ([1]; 298.15 K, m2 = 0): 1584.35 ± 2.2 kg/m3
- speed of sound ([1]; 298.15 K, m2 = 0): 921.5 ± 1.7 m/s

- mass density ([1]; 295.15 K, m2 = 0): 997.773 ± 0.6 kg/m3
- mass density ([1]; 297.15 K, m2 = 0): 997.299 ± 0.6 kg/m3
- mass density ([1]; 299.15 K, m2 = 0): 996.786 ± 0.6 kg/m3
- mass density ([1]; 301.15 K, m2 = 0): 996.236 ± 0.61 kg/m3
Compound: O [water] + C1COCCOCCOCCOCCOCCO1
